The results in this text go back to PubChem BioAssay (NCI).

What all share (assay): NCI anticancer screen, dose series, 48 h
Experiment [1] has as its system T-47D breast.
Experiment [2] relates to MDA-MB-231 breast.
Experiment [3] deals with NCI-H460 lung.
The test system of experiment [4] is OVCAR-8 ovarian.
The test system of experiment [5] is MOLT-4 leukemia.
The test system of experiment [6] is TK-10 renal.
For experiment [7], the system named is UACC-257 melanoma.
In experiment [8] the test system is A498 renal.
Experiment [9] has as its system NCI-H522 lung.
The subject of experiment [10] is HCT-15 colon.

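Dose response: 5 concentrations. Exposure: 48 h. Format: 96-well plates. Endpoint: linear interpolation; highest concentration if not reached. TGI is the concentration that stops growth completely.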 Where a SMILES comes first, the peptide text is derived from it. [ ]: non-standard residue; d: D form. The star is where a group is joined. ξ: configuration not given here. Propanoyl(3-(4-MeO-Ph)) = COc1ccc(CCC(=O)*)cc1; Thr(3ξ) = CC(O)[C@H](N)C(=O)O; dNMeL = CN[C@H](CC(C)C)C(=O)O; ξLac = CC(O)C(=O)O

For the compound `O=S(=O)(O)c1cc(Nc2ccnc3ccccc23)c2c(S(=O)(=O)O)cc(S(=O)(=O)O)cc2c1`, the TGI in experiment [1], in experiment [2], in [3], in experiment [4], in [5] and in experiment [6] was more than 100 µM throughout. Moreover, the TGI in [7], in [8], in experiment [9] and in experiment [10] was more than 100 µM in each case.

For `Cc1oncc1NC1=CC(=O)C(=O)c2ccccc21`, the TGI in experiment [1] was found to be 11.5 µM; in experiment [2], 32.8 µM; in experiment [3] it was 20.3 µM; in experiment [4] it was 11.9 µM; in experiment [5], 11.9 µM; in experiment [6] it was 45.2 µM. Further, the TGI in experiment [7] turned out to be 9.34 µM; in experiment [8], 17.9 µM; in experiment [9] it was 19.2 µM; in experiment [10], 12.2 µM.

On to `COc1ccc2oc(=Nc3ccc(F)cc3)c(C(N)=O)cc2c1`, for which the TGI in experiment [1] is 94.8 µM; in experiment [2], 39.3 µM; in experiment [3], more than 100 µM; in experiment [4], more than 100 µM; in experiment [5], more than 100 µM; in experiment [6], 58 µM. Besides, the TGI in experiment [7] is more than 100 µM; in experiment [8] it was 58.7 µM; in experiment [9], more than 100 µM; in [10], more than 100 µM.

`CN(C)CCNC(=O)c1cccc2[nH]c(-c3ccncc3)nc12`: the TGI in experiment [1] was more than 86.1 µM; in [2], 9.74 µM; in experiment [3], 8.22 µM; in experiment [4] it was more than 40.2 µM; in [5], more than 100 µM; in [6] it was 16.9 µM. Also, the TGI in [7] amounted to 3.51 µM; in experiment [8], 19.8 µM; in experiment [9], 3.97 µM; in [10] it was 10.4 µM.

Turning to `COc1cc(/C=C2\N=C(C)N(n3c(-c4ccccc4)nc4ccccc4c3=O)C2=O)cc(OC)c1OC`, the TGI in experiment [1], in experiment [2], in experiment [3], in experiment [4], in [5] and in experiment [6] was more than 100 µM throughout. Further, the TGI in [7], in experiment [8], in experiment [9] and in experiment [10] was more than 100 µM in each case.

In the case of `CCCC(=O)Nc1cc(/C=C/C(=O)N2CC(CCl)c3c2cc([N+](=O)[O-])c2ccccc32)n(C)c1` (stereo not given), the TGI in experiment [1], in experiment [2], in [3], in [4], in experiment [5] and in experiment [6] was more than 100 µM in each case. Also, the TGI in experiment [7] is more than 100 µM; in experiment [8], more than 87.9 µM; in [9], more than 100 µM; in [10] it was more than 100 µM.

For `COc1cc([C@@H]2c3cc4c(cc3[C@@H](N=Cc3ccc(C(=O)O[C@@H](C(=O)O[C@H]5C[C@@]6(O)[C@@H](OC(=O)c7ccccc7)[C@@H]7[C@]8(OC(C)=O)CO[C@@H]8C[C@H](O)[C@@]7(C)C(=O)[C@H](OC(C)=O)C(=C5C)C6(C)C)[C@@H](NC(=O)c5ccccc5)c5ccccc5)cc3)[C@H]3COC(=O)[C@H]23)OCO4)cc(OC)c1O`, the TGI in experiment [1] was more than 50 µM; in [2], more than 13.9 µM; in experiment [3] it was more than 50 µM; in experiment [4] it was more than 50 µM; in experiment [5], more than 50 µM; in experiment [6], more than 50 µM. In addition, the TGI in [7] is more than 50 µM; in [8], 26.2 µM; in experiment [9] it was more than 50 µM; in experiment [10], more than 50 µM.

`COc1nc2ccc(CNc3ccc(C(=O)O)cc3)cc2nc1OC`: the TGI in experiment [1], in experiment [2], in [3], in [4], in experiment [5] and in [6] was more than 10 µM throughout. Besides, the TGI in experiment [7], in experiment [8], in experiment [9] and in experiment [10] was more than 10 µM throughout.

On to `O=C(CCc1ccc(O)c(O)c1)NCCc1ccc(O)c(O)c1`, for which the TGI is more than 100 µM in experiment [1]; 73.9 µM in experiment [2]; more than 100 µM in [3]; 32.4 µM in experiment [4]; more than 100 µM in experiment [5]; more than 100 µM in experiment [6]. In addition, the TGI in experiment [7], in experiment [8], in [9] and in experiment [10] was more than 100 µM in each case.

For the compound `COC(=O)C(Cc1ccccc1)NC(=O)c1ccc(CNC(=S)NCc2cccc(CNC(=S)NCc3ccccc3)c2)cc1` (stereo not given), the TGI in experiment [1], in experiment [2], in experiment [3], in experiment [4], in experiment [5] and in experiment [6] was more than 62.5 µM throughout. Also, the TGI in experiment [7], in [8], in experiment [9] and in experiment [10] was more than 62.5 µM throughout.

With `O=[N+]([O-])c1ccc2nc(/C=C(\O)c3ccccc3)c(/C=C(\O)c3ccccc3)nc2c1`, the TGI was 37.3 µM in experiment [1]; 39.4 µM in experiment [2]; more than 81 µM in experiment [3]; 42 µM in experiment [4]; 40.5 µM in [5]; 63 µM in experiment [6]. For the same compound, the TGI in experiment [7] was more than 100 µM; in [8] it was more than 86.2 µM; in experiment [9], 38.7 µM; in experiment [10] it was more than 100 µM.

For `CCNc1cc2c3c(c1)CCCN3CCC2`, the TGI is 67.9 µM in [1]; 22.4 µM in experiment [2]; 29.8 µM in experiment [3]; 56.4 µM in experiment [4]; 50.6 µM in experiment [5]; more than 100 µM in [6]. The TGI in experiment [7] was 49.5 µM; in [8], 65.3 µM; in experiment [9], 62.7 µM; in [10], 40.5 µM.

`COC(=O)[C@@H](NC(=O)[C@@H](CC(C)C)N(C)C(=O)[C@@H]1CCCN1C(=O)C(C)O)C(C)OC(=O)CCc1ccc(OC)cc1` (stereo not given in full) (H-[ξLac]P[dNMeL][Thr(3ξ)](Propanoyl(3-(4-MeO-Ph)))-OMe): the TGI in experiment [1], in [2], in experiment [3], in experiment [4], in experiment [5] and in experiment [6] was more than 100 µM throughout. Besides, the TGI in [7], in experiment [8], in experiment [9] and in [10] was more than 100 µM in each case.
